Measured values as given in the NIST ThermoML archive (doi:10.1016/j.jct.2018.04.014).

Tests used:
[1] = xn = mol fraction of the nth substance listed; conditions: 93.4 kPa, Liquid, x2 = 0.059; for viscosity: Concentric cylinders viscometry; for mass density: Vibrating tube method
[2] = Liquid; for viscosity / mass density: 93.4 kPa; for viscosity: Concentric cylinders viscometry; for mass density: Vibrating tube method; for vapor or sublimation pressure: Closed cell (Static) method

C=CCn1cc[n+](C)c1.[Cl-] [1-allyl-3-methylimidazolium chloride] + O
[1]
Conditions | mass density [kg/m3] | viscosity [mPa·s]
323.15 K | 1132.7 | 212
333.15 K | 1127.1 | 115
343.15 K | 1121.5 | 68.7
353.15 K | 1116 | 44
363.15 K | 1110.5 | 30
373.15 K | 1105.2 | 21.4

C[S+](C)[O-] [dimethyl sulfoxide]
[2]
Conditions | mass density [kg/m3] | vapor or sublimation pressure [kPa] | viscosity [mPa·s]
293.15 K | 1101.2 | – | 2.26
303.15 K | 1091.2 | – | 1.85
313.15 K | 1081.1 | – | 1.56
323.15 K | 1071.1 | – | 1.33
333.15 K | 1061.2 | – | 1.16
343.15 K | 1051.3 | – | 1.02
353.1 K | – | 2 | –
353.15 K | 1041.1 | – | 0.905
363.1 K | – | 3.2 | –
363.15 K | 1031.3 | – | 0.815
373.1 K | – | 5 | –
373.15 K | 1021.4 | – | 0.741
383.1 K | – | 7.6 | –
393.1 K | – | 11.2 | –
403.1 K | – | 16 | –
413.1 K | – | 22.7 | –
423.1 K | – | 31.6 | –
433.1 K | – | 43.2 | –
